Source: PMC7770674, “A Combinative Assembly Strategy Inspired Reversibly Borate-Bridged Polymeric Micelles for Lesion-Specific Rapid Release of Anti-Coccidial Drugs” (Nano-Micro Letters, 2020)

Test system: Caco2 cells
Assay: In vitro cytotoxicity MTT assay
Type: cell-based, human
Settings: DIC concentration 100 μg mL^−1, 48 h
Procedure: For cell studies, human colon cancer cell line Caco2 cells (Shanghai Institute of Biochemistry and Cell Biology, Chinese Academy of Sciences, Shanghai, China) were cultured in DMEM medium supplemented with 10% FBS, 100 U mL^−1 penicillin, and 100 μg mL^−1 streptomycin at 37 °C under an atmosphere of 5% CO2 and 95% relative humidity. In vitro cytotoxicity of free DIC, blank micelles and DIC-encapsulated micelles were evaluated by 3-(4,5-dimethylthiazol-2-yl)-2,5-diphenyltetrazolium bromide (MTT) assay. Caco2 cells were planted in 96-well plate at a density of 5 × 10^3 cells per well and cultured for another 24 h. The cells were treated with free DIC, PCS/DIC micelles, PCS + DIC mixture, SPCS/DIC micelles and SPCS + DIC mixture at a range of DIC concentrations (0.001–100 μg mL^−1), or PCS and SPCS blank micelles at equivalent concentrations of corresponding drug-loaded micelles for 48 h. Thereafter, 20 µL of MTT solution (5 mg mL^−1) was added to each well and incubated with cells for another 4 h at 37 °C. The culture medium was then removed, and the formed dark blue formazan crystals were dissolved with 100 µL of DMSO. The absorbance at 570 nm was recorded using a microplate reader (EL800, BIO-TEK Instruments Inc., USA). Untreated cells were used as control, and cell viability (%) was calculated according to Eq. (3).3 Cellviability(%)=Atest/Acontrol×100%

SMILES: N#CC(c1ccc(Cl)cc1)c1c(Cl)cc(-n2ncc(=O)[nH]c2=O)cc1Cl (stereo not shown) [Free DIC, Diclazuril]
- cells survived: less than 10%
